Results as given in paper PMC12163822, “Synthesis and Pharmacological Characterization of a Novel Cannabinoid Receptor 1 Antagonist” (ACS Omega, 2025).

Columns and labels:
[1] = molecular target: T1, human CB2 receptor (Homo sapiens, UniProt P34972); experiment: [3H]CP55,940 inhibition curves in membranes from CHO cells overexpressing human CB2; type: binding
T1 construct: purchased Sigma-Aldrich; host or cells: CHO cells
Protocol: Membrane homogenates from CHO cells overexpressing human CB1 and CB2 receptors, as well as matched wild-type cells, were used to test newly synthesized compounds and were acquired from Sigma-Aldrich (St Louis, MO, USA).
To stop the reaction, an ice-cold wash buffer (50 mM Tris–HCl and 0.5% BSA, pH 7.4) was added. Then, the membranes were retained by vacuum filtration to a Whatman GF/C glass microfiber filter (Sigma-Aldrich, St. Louis, MO, USA) and the free radioligand was discarded. Filters with the bound radioligand were transferred to vials containing 5 mL of Ultima Gold cocktail (Revvity, Boston, MA, USA) and measured with a Packard Tri-Carb 2200CA liquid scintillation counter (Revvity, Boston, MA, USA).
A concentration of 0.02 mg/mL of commercial WT (as control) and CB1 and CB2 overexpressing CHO cells were used, and the same protocol described above was followed. Rat spleen homogenates were also used at a concentration of 0.1 mg/mL as a further characterization of binding to the CB2 receptor, given the high expression of this receptor in this tissue and the practical lack of CB1 in it.

[2] = molecular target: T2, CB1 receptor (Mus musculus, UniProt P47746); experiment: [3H]CP55,940 receptor autoradiography in mouse brain slices; type: binding, Swiss mice; settings: for [3H]CP55,940 binding: mouse, 3 nM [3H]CP55,940 in the presence of compound 10 µM
T2 construct: fresh frozen sections from brain samples from wild-type; from tissue; host or cells: Swiss mouse brain sections
Protocol: (§1) All brain sections were air-dried for 30 min and later immersed in Coplin jars for preincubation in a buffer containing 50 mM Tris–HCl and 1% of BSA (pH 7.4) for 30 min at room temperature. The objective of this preincubation was to remove endogenous ligands. […] Following incubation, tissue slices were washed with an ice-cold preincubation buffer, dipped in distilled water, and dried overnight. To generate autoradiograms, dry sections were placed in hermetically closed cassettes and exposed to β-radiation-sensitive films for 21 days at 4 °C. To calibrate the optical densities to fmol/mg tissue equivalent, [^3H]-microscales were exposed to the films. To quantify the calibrated films after scanning, Fiji software (Bethesda, […], USA) was used.

[3] = molecular target: T2, CB1 receptor; experiment: Functional [35S]GTPγS autoradiography in mouse brain slices; type: biochemical, Swiss mice; settings: for [35S]GTPγS binding, Stimulation (% over basal), CP55,940 + UVI3502 / [35S]GTPγS binding, Stimulation (% over basal): mouse; for [35S]GTPγS binding, Stimulation (% over basal), CP55,940 + UVI3502: CP55,940 and UVI3502 both at 10 µM; for [35S]GTPγS binding, Stimulation (% over basal): compound alone 10 µM
Protocol: All brain sections were air-dried for 30 min and then immersed in Coplin jars for preincubation (4 times, 15 min each time) in an HEPES-based buffer (50 mM HEPES, 100 mM NaCl, 3 mM MgCl2, 0.2 mM EGTA, 0.5% BSA; pH 7.4) at 30 °C. The objective of this preincubation was the removal of endogenous ligands. […] Basal [^35S]-GTPγS binding was defined in the absence of the agonists in two consecutive slices. To define nonspecific binding, 10 μM of unlabeled GTPγS was added to the incubation in another section. Following incubation, slices were twice washed in an ice-cold 50 mM HEPES buffer (pH 7.4), dried, and exposed for 48 h to β-radiation sensitive film with a set of [^14C] standards calibrated for [^35S]. Calibrated films were scanned and quantified using Fiji software (Fiji, Bethesda, […], USA). The signal corresponding to nonspecific binding was previously subtracted from the basal and agonist-stimulated binding. Then, the data was expressed as the percentage of stimulation over basal following the formula: ([^35S]-GTPγS agonist-stimulated binding) × 100/([^35S]-GTPγS basal binding)-100.

[4] = molecular target: CB1 receptor (Rattus norvegicus, UniProt P20272); experiment: [3H]CP55,940 receptor autoradiography in rat brain slices; type: binding, Sprague-Dawley rat; set-up: fresh frozen sections from brain samples from wild-type; from tissue; host or cells: Sprague-Dawley rat brain sections; settings: for [3H]CP55,940 binding: rat, 3 nM [3H]CP55,940 in the presence of compound 10 µM
Protocol: as §1

[5] = molecular target: T3, CB2 receptor (Rattus norvegicus, UniProt Q9QZN9); experiment: [3H]CP55,940 inhibition curves in rat spleen membrane homogenates (CB2-enriched); type: binding, Sprague-Dawley rat
T3 construct: from tissue; host or cells: Sprague-Dawley rat spleen
T3 sequence (Q9QZN9 1-360): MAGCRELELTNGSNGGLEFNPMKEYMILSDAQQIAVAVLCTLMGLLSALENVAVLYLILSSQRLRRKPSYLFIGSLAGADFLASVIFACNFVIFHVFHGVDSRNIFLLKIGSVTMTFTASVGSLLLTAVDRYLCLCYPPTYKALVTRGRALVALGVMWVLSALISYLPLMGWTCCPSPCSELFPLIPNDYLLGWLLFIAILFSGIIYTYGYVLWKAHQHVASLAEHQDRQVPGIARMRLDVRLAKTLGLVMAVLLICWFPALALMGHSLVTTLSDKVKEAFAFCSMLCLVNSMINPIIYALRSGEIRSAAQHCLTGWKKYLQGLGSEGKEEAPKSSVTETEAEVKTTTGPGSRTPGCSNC
Protocol: Sprague–Dawley rats (n = 5) were anesthetized and sacrificed by decapitation. Spleens and brains were then quickly removed by dissection at 4 °C, and in the case of the brain tissue, the cortex was dissected for the preparation of the membrane homogenates. For this procedure, spleen and cortex samples were homogenized using a Teflon-glass grinder (15 up-and-down strokes at 800 rpm) in 30 volumes of homogenization buffer (1 mM EGTA, 3 mM MgCl2, 50 mM Tris–HCl; pH 7.4) supplemented with […], at 4 °C. The obtained homogenates were centrifuged for 5 min at 1500 rpm. Pellets were removed, and supernatants were centrifuged again for 15 min at 14,000 rpm. For washing, the obtained pellets were resuspended in a buffer and centrifuged again, and the supernatant was removed. The resulting aliquots were stored at −80 °C until use.
To stop the reaction, an ice-cold wash buffer (50 mM Tris–HCl and 0.5% BSA, pH 7.4) was added. Then, the membranes were retained by vacuum filtration to a Whatman GF/C glass microfiber filter (Sigma-Aldrich, St. Louis, MO, USA) and the free radioligand was discarded. Filters with the bound radioligand were transferred to vials containing 5 mL of Ultima Gold cocktail (Revvity, Boston, MA, USA) and measured with a Packard Tri-Carb 2200CA liquid scintillation counter (Revvity, Boston, MA, USA). […]

[6] = mouse brain slices, 10 µM, result in words
[7] = nucleus basalis magnocellularis

T2 sequence (P47746 whole entry): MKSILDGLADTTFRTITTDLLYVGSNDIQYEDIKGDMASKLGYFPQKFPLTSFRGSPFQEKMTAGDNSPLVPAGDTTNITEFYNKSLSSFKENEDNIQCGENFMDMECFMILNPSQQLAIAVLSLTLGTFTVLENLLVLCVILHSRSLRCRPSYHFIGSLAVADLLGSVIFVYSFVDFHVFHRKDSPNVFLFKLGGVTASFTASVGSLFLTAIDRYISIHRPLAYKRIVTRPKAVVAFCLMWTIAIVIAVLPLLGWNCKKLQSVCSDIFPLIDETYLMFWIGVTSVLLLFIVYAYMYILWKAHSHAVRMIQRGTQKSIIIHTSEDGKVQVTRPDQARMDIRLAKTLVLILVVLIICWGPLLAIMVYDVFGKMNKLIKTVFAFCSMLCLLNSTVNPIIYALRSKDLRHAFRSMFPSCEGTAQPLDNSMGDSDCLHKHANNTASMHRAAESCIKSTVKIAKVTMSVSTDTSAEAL
Sequence of CB1 receptor (Rattus norvegicus, UniProt P20272) (P20272 whole entry): as the sequence (P47746 whole entry) above, with D95E counted along it
T1 sequence (P34972 whole entry): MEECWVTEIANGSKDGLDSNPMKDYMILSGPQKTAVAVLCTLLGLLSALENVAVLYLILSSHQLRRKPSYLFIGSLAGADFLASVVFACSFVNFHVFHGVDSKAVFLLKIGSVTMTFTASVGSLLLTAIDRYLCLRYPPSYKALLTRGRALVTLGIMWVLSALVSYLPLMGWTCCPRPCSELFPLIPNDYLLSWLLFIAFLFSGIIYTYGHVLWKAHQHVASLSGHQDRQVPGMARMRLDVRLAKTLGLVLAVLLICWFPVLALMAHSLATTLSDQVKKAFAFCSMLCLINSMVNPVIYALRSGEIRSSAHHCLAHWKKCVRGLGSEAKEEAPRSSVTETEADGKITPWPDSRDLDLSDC

SMILES: CCOC(=O)/C=C1\C(=O)Nc2ccc(C)cc2-c2c1c1cc(OC)ccc1n2C(=O)OCC [UVI3502]
- IC50 [1]: 16.2 ± 0.131 µM
- maximum inhibition of [3H]CP55,940 binding ([1]; CB2 overexpressing CHO membranes): approximately 83%
- inhibition of [3H]CP55,940 binding in brain areas [2, 6]: partially inhibit
- [3H]CP55,940 binding ([2]; amygdala): 154 ± 8 fmol/mg t.e.
- [3H]CP55,940 binding ([2]; cerebellum (gray matter)): 409 ± 207 fmol/mg t.e.
- [3H]CP55,940 binding ([2]; cortex): 118 ± 18 fmol/mg t.e.
- [3H]CP55,940 binding ([2]; globus pallidus): 698 ± 16 fmol/mg t.e.
- [3H]CP55,940 binding ([2]; hippocampus dorsal): 181 ± 9 fmol/mg t.e.
- [3H]CP55,940 binding [2, 7]: 202 ± 19 fmol/mg t.e.
- [3H]CP55,940 binding ([2]; striatum): 159 ± 11 fmol/mg t.e.
- [3H]CP55,940 binding ([2]; substantia nigra): 1075 ± 22 fmol/mg t.e.
- activity on CP55,940-evoked [35S]GTPγS stimulation [3, 6]: acts as an antagonist
- [35S]GTPγS binding, Stimulation (% over basal), CP55,940 + UVI3502 ([3]; amygdala): 0 ± 78 % over basal
- [35S]GTPγS binding, Stimulation (% over basal) ([3]; amygdala): -16 ± 51 % over basal
- [35S]GTPγS binding, Stimulation (% over basal), CP55,940 + UVI3502 ([3]; cerebellum (gray matter)): 6 ± 23 % over basal
- [35S]GTPγS binding, Stimulation (% over basal) ([3]; cerebellum (gray matter)): -43 ± 9 % over basal
- [35S]GTPγS binding, Stimulation (% over basal), CP55,940 + UVI3502 ([3]; cortex): -51 ± 11 % over basal
- [35S]GTPγS binding, Stimulation (% over basal) ([3]; cortex): -55 ± 9 % over basal
- [35S]GTPγS binding, Stimulation (% over basal), CP55,940 + UVI3502 ([3]; globus pallidus): 91 ± 104 % over basal
- [35S]GTPγS binding, Stimulation (% over basal) ([3]; globus pallidus): -46 ± 29 % over basal
- [35S]GTPγS binding, Stimulation (% over basal), CP55,940 + UVI3502 ([3]; hippocampus dorsal): -36 ± 8 % over basal
- [35S]GTPγS binding, Stimulation (% over basal) ([3]; hippocampus dorsal): -38 ± 12 % over basal
- [35S]GTPγS binding, Stimulation (% over basal), CP55,940 + UVI3502 [3, 7]: -30 ± 37 % over basal
- [35S]GTPγS binding, Stimulation (% over basal) [3, 7]: -20 ± 65 % over basal
- [35S]GTPγS binding, Stimulation (% over basal), CP55,940 + UVI3502 ([3]; striatum): -52 ± 13 % over basal
- [35S]GTPγS binding, Stimulation (% over basal) ([3]; striatum): -52 ± 18 % over basal
- [35S]GTPγS binding, Stimulation (% over basal), CP55,940 + UVI3502 ([3]; substantia nigra): 181 ± 128 % over basal
- [35S]GTPγS binding, Stimulation (% over basal) ([3]; substantia nigra): -58 ± 11 % over basal
- inhibition of [3H]CP55,940 binding in brain areas ([4]; rat brain slices, 10 µM, result in words): partially inhibit
- [3H]CP55,940 binding ([4]; amygdala): 136 ± 52 fmol/mg t.e.
- [3H]CP55,940 binding ([4]; cerebellum (gray matter)): 421 ± 126 fmol/mg t.e.
- [3H]CP55,940 binding ([4]; cortex): 122 ± 25 fmol/mg t.e.
- [3H]CP55,940 binding ([4]; globus pallidus): 572 ± 40 fmol/mg t.e.
- [3H]CP55,940 binding ([4]; hippocampus dorsal): 184 ± 26 fmol/mg t.e.
- [3H]CP55,940 binding [4, 7]: 147 ± 18 fmol/mg t.e.
- [3H]CP55,940 binding ([4]; striatum): 291 ± 18 fmol/mg t.e.
- [3H]CP55,940 binding ([4]; substantia nigra): 1364 ± 581 fmol/mg t.e.
- IC50 [5]: 10.23 ± 0.0178 µM
- maximum inhibition of [3H]CP55,940 binding ([5]; rat spleen membrane homogenates): ~61%
